# Measured values from PubChem BioAssay AID296 (DTP/NCI, 2004).
# Where “and” joins values, the source holds several entries; their conditions need not be identical. Identical values can stand only once. Results filed as inconclusive are left out. *1 amine or outer side, *2 acyl side, *3 side chain or, on linkers, in order; H or OH if unused. Where a SMILES comes first, the peptide text is derived from it. [ ]: non-standard residue; d: D form. The star is where a group is joined. X2 = CCC(=O)CC1CC(C)CC(C(=O)[*:2])N1[*:1]; X1 = CCCCCCCCC(C)C(=O)*; Aib = CC(C)(N)C(=O)O; X3 = CC(CN(C)CCO)N*
# System: MX-1 breast xenograft, nude mice, tumor weight T/C
# Assay: NCI In Vivo Anticancer Drug Screen. Data for tumor model Human Mammary Carcinoma MX-1 Xenograft (intrarenal inoculation) in NU/NU Swiss (nude) mice
# Details: endpoint: mean tumor weight change, higher = larger tumour
# In short: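 Read-out: treated (T) over vehicle control (C) ratio of survival or tumor size. Dosing in animals carrying the transplanted tumor.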
# [1] = dose: 12.5 mg/kg/injection, schedule: Q01DX010 (sc), vehicle: saline
# [2] = dose: 50.0 mg/kg/injection, schedule: Q01DX010 (sc), vehicle: saline
# [3] = dose: 600.0 mg/kg/injection, schedule: Q04DX003 (sc), vehicle: suspension in saline
# [4] = dose: 1200.0 mg/kg/injection, schedule: Q04DX003 (sc), vehicle: suspension in saline
# [5] = dose: 37.5 mg/kg/injection, schedule: Q04DX003 (sc), vehicle: saline with Tween-80
# [6] = dose: 75.0 mg/kg/injection, schedule: Q04DX003 (sc), vehicle: saline with Tween-80
# [7] = dose: 150.0 mg/kg/injection, schedule: Q04DX003 (sc), vehicle: saline with Tween-80
# [8] = dose: 300.0 mg/kg/injection, schedule: Q04DX003 (sc), vehicle: saline with Tween-80
compound,measurement,setting,value
O=C1c2ccccc2C(=O)c2c(NCCNCCO)ccc(NCCNCCO)c21,T/C,"dose: 4.0 mg/kg/injection, schedule: Q01DX010 (ip), vehicle: water",59 % of control
same,T/C,"dose: 8.0 mg/kg/injection, schedule: Q01DX010 (ip), vehicle: water",80 % of control
same,T/C,"dose: 13.33 mg/kg/injection, schedule: Q04DX003 (ip), vehicle: water",45 % of control
same,T/C,"dose: 13.33 mg/kg/injection, schedule: Q04DX003 (sc), vehicle: water",65 % of control
same,T/C,"dose: 16.0 mg/kg/injection, schedule: Q01DX010 (ip), vehicle: water",61 % of control
same,T/C,"dose: 16.0 mg/kg/injection, schedule: Q01DX010 (sc), vehicle: water",13 % of control and 25 % of control
same,T/C,"dose: 26.65 mg/kg/injection, schedule: Q04DX003 (sc), vehicle: water",32 % of control
same,T/C,"dose: 32.0 mg/kg/injection, schedule: Q01DX010 (ip), vehicle: water",20 % of control
same,T/C,"dose: 53.3 mg/kg/injection, schedule: Q04DX003 (ip), vehicle: water",31 % of control
same,T/C,"dose: 53.3 mg/kg/injection, schedule: Q04DX003 (sc), vehicle: water",31 % of control
CC(=O)OC1COC(NC(=O)N(CCCl)N=O)C(OC(C)=O)C1OC(C)=O (configuration not stated),T/C,"dose: 4.5 mg/kg/injection, schedule: Q04DX003 (sc), vehicle: saline with Tween-80",105 % of control
same,T/C,"dose: 9.0 mg/kg/injection, schedule: Q04DX003 (sc), vehicle: saline with Tween-80",77 % of control
same,T/C,"dose: 18.0 mg/kg/injection, schedule: Q04DX003 (sc), vehicle: saline with Tween-80",110 % of control
same,T/C,"dose: 36.0 mg/kg/injection, schedule: Q04DX003 (sc), vehicle: saline with Tween-80",82 % of control
COc1ccc(C(=O)/C(Br)=C/C(=O)O)cc1,T/C,[1],110 % of control
same,T/C,"dose: 25.0 mg/kg/injection, schedule: Q01DX010 (sc), vehicle: saline",63 % of control
same,T/C,[2],98 % of control
CS(=O)(=O)OCCC(=O)N1CCN(C(=O)CCOS(C)(=O)=O)CC1,T/C,"dose: 300.0 mg/kg/injection, schedule: Q04DX003 (sc), vehicle: suspension in saline",8 % of control
same,T/C,[3],-100 % of control
same,T/C,[4],-100 % of control
N=c1ccn2c(n1)OC1C(O)C(CO)OC12 (configuration not stated),T/C,"dose: 150.0 mg/kg/injection, schedule: Q04DX003 (sc), vehicle: saline",102 % of control
same,T/C,"dose: 300.0 mg/kg/injection, schedule: Q04DX003 (sc), vehicle: saline",84 % of control
same,T/C,"dose: 400.0 mg/kg/injection, schedule: Q04DX003 (sc), vehicle: saline",95 % of control
same,T/C,"dose: 600.0 mg/kg/injection, schedule: Q04DX003 (sc), vehicle: saline",42 % of control
same,T/C,[3],70 % of control
same,T/C,"dose: 800.0 mg/kg/injection, schedule: Q04DX003 (sc), vehicle: saline",69 % of control
same,T/C,"dose: 1200.0 mg/kg/injection, schedule: Q04DX003 (sc), vehicle: saline",50 % of control
same,T/C,[4],55 % of control
same,T/C,"dose: 1600.0 mg/kg/injection, schedule: Q04DX003 (sc), vehicle: saline",64 % of control
same,T/C,"dose: 2400.0 mg/kg/injection, schedule: Q04DX003 (sc), vehicle: suspension in saline",70 % of control
CC(C)=CC(=O)OC1C2C(C)=CC(=O)C(O)C2(C)C2C3(O)OCC24C(CC(=O)OC14)C(C)C3O (configuration not stated),T/C,"dose: 1.25 mg/kg/injection, schedule: Q04DX003 (sc), vehicle: distilled water + Tween-80",41 % of control
same,T/C,"dose: 2.5 mg/kg/injection, schedule: Q04DX003 (sc), vehicle: distilled water + Tween-80",82 % of control
same,T/C,"dose: 5.0 mg/kg/injection, schedule: Q04DX003 (sc), vehicle: distilled water + Tween-80",71 % of control
same,T/C,"dose: 10.0 mg/kg/injection, schedule: Q04DX003 (sc), vehicle: distilled water + Tween-80",88 % of control
O=C1C2CC=CCC2C(=O)N1SC(Cl)(Cl)Cl (configuration not stated),T/C,[5],85 % of control
same,T/C,[6],77 % of control
same,T/C,[7],97 % of control and 119 % of control
same,T/C,[8],97 % of control and 112 % of control
C[n+]1c(/C=C\C=C\N2CCCCC2)sc2ccccc21,T/C,"dose: 0.75 mg/kg/injection, schedule: Q04DX003 (sc), vehicle: Klucel (hydroxypropylcellulose) (HPC)",84 % of control
same,T/C,"dose: 1.5 mg/kg/injection, schedule: Q04DX003 (sc), vehicle: Klucel (hydroxypropylcellulose) (HPC)",93 % of control
COC(=O)Nc1nc2ccc(C3(c4ccc(F)cc4)OCCO3)cc2[nH]1,T/C,"dose: 50.0 mg/kg/injection, schedule: Q04DX003 (sc), vehicle: saline with Tween-80",100 % of control
same,T/C,"dose: 100.0 mg/kg/injection, schedule: Q04DX003 (sc), vehicle: saline with Tween-80",79 % of control
NC1(C(=O)O)CCCC1,T/C,[1],103 % of control
same,T/C,[2],25 % of control and 41 % of control
same,T/C,"dose: 100.0 mg/kg/injection, schedule: Q01DX010 (sc), vehicle: saline",7 % of control and 8 % of control
CC1(O)CC23CC(O)C4(O)C(CC(O)C4(C)C)C(C)(O)C2CCC1C3O (configuration not stated),T/C,"dose: 0.25 mg/kg/injection, schedule: Q04DX003 (sc), vehicle: Klucel (hydroxypropylcellulose) (HPC)",162 % of control
CC(=O)OCN(C)C=O,T/C,"dose: 300.0 mg/kg/injection, schedule: Q01DX010 (sc), vehicle: water",100 % of control
same,T/C,"dose: 600.0 mg/kg/injection, schedule: Q01DX010 (sc), vehicle: water",54 % of control
same,T/C,"dose: 1200.0 mg/kg/injection, schedule: Q01DX010 (sc), vehicle: water",18 % of control
same,T/C,"dose: 2400.0 mg/kg/injection, schedule: Q01DX010 (sc), vehicle: water",-8 % of control
CCCCCCCCC(C)C(=O)N1CCCC1C(=O)N1C(CC(=O)CC)CC(C)CC1C(=O)NC(C)C(=O)NC(C)(C)C(=O)NC(C)(C)C(=O)NC(C(=O)NC(C)C(=O)NC(C)(C)C(=O)NC(C)(C)C(=O)NC(C)CN(C)CCO)C(C)CC (configuration not stated) (X1-P[X2]A[Aib][Aib]IA[Aib][Aib]-X3; configuration not given here),T/C,"dose: 1.25 mg/kg/injection, schedule: Q04DX003 (sc), vehicle: Klucel (hydroxypropylcellulose) (HPC)",105 % of control
same,T/C,"dose: 2.5 mg/kg/injection, schedule: Q04DX003 (sc), vehicle: Klucel (hydroxypropylcellulose) (HPC)",113 % of control
Cc1cccc(OCC(O)CN2CC2)c1 (configuration not stated),T/C,"dose: 50.0 mg/kg/injection, schedule: Q04DX003 (ip), vehicle: saline with Tween-80",70 % of control
same,T/C,"dose: 100.0 mg/kg/injection, schedule: Q04DX003 (ip), vehicle: saline with Tween-80",58 % of control
same,T/C,"dose: 200.0 mg/kg/injection, schedule: Q04DX003 (ip), vehicle: saline with Tween-80",43 % of control
COC1N(C2CC(O)C(CO)O2)C(=O)NC(=O)C1(F)Br (configuration not stated),T/C,[1],117 % of control
Nc1nc2c(C(=O)N3CCCC3)nnn2c2ccccc12,T/C,[5],35 % of control
same,T/C,[6],74 % of control
same,T/C,[7],49 % of control
O=C1C(=O)c2ccccc2C(O)=C1CC=C(Cl)Cl,T/C,"dose: 25.0 mg/kg/injection, schedule: Q01DX010 (sc), vehicle: water",68 % of control
same,T/C,"dose: 50.0 mg/kg/injection, schedule: Q01DX010 (sc), vehicle: water",110 % of control
same,T/C,"dose: 100.0 mg/kg/injection, schedule: Q01DX010 (sc), vehicle: water",109 % of control
same,T/C,"dose: 200.0 mg/kg/injection, schedule: Q01DX010 (sc), vehicle: water",106 % of control
Nc1nc(=O)n(C2OC(CO)C(O)C2O)cc1F (configuration not stated),T/C,[8],103 % of control
same,T/C,"dose: 600.0 mg/kg/injection, schedule: Q04DX003 (sc), vehicle: saline with Tween-80",77 % of control
same,T/C,"dose: 1200.0 mg/kg/injection, schedule: Q04DX003 (sc), vehicle: saline with Tween-80",81 % of control
same,T/C,"dose: 2400.0 mg/kg/injection, schedule: Q04DX003 (sc), vehicle: saline with Tween-80",32 % of control
Cc1ccc2nc(-c3ccc4nc(-c5ccc(N=Nc6ccc(-c7nc8ccc(-c9nc%10ccc(C)c(S(=O)(=O)O)c%10s9)cc8s7)cc6)cc5)sc4c3)sc2c1S(=O)(=O)O,T/C,"dose: 200.0 mg/kg/injection, schedule: Q04DX003 (sc), vehicle: suspension in saline",90 % of control
same,T/C,"dose: 400.0 mg/kg/injection, schedule: Q04DX003 (sc), vehicle: suspension in saline",90 % of control
CN(C)c1ccc2c(N(C)C)cc(N(C)C)nc2c1,T/C,"dose: 18.75 mg/kg/injection, schedule: Q04DX003 (sc), vehicle: Klucel (hydroxypropylcellulose) (HPC)",78 % of control
same,T/C,"dose: 37.5 mg/kg/injection, schedule: Q04DX003 (sc), vehicle: Klucel (hydroxypropylcellulose) (HPC)",84 % of control
same,T/C,"dose: 75.0 mg/kg/injection, schedule: Q04DX003 (sc), vehicle: Klucel (hydroxypropylcellulose) (HPC)",82 % of control
